The values that follow are results of earlier work, collected in patent publication US6358910B1, “Detergent compositions” (Lever Brothers Company, divison of Conopco, Inc., priority 1997, dated 2002).

The structures appear in SMILES notation. Where only a bound is given, the exact number is not on record here.

The conditions of the series: grams of solid to form a saturated solution in 100 grams of water at 20° C.
With `O=P(O)(O)OP(=O)(O)OP(=O)(O)O` [Sodium tripolyphosphate anhydrous], the “Water Solubility (g/100 g)” value is listed as 15 g/100 g.
Regarding `NC(N)=O` [Urea], the “Water Solubility (g/100 g)” value is given as >100 g/100 g.
As for `O=BO[O-].[Na+]` [Sodium perborate anhydrous], the “Water Solubility (g/100 g)” value is listed as 3.7 g/100 g.
